Test results published in patent US20210315893A1 (Galapagos NV, priority 2017, published 2021).

How the values were obtained:
[1] = biological target: T1, human GPCR sphingosine 1-phosphate receptor 2 (Homo sapiens, UniProt O95136); assay: S1PR2 antagonist Ca2+ flux assay; format: cell-based; conditions: antagonist mode, CHO-S1PR2 cells, S1P at EC80, Ca2+ fluorescence; read-out: S1P2 EC50 (nM), S1P2 antagonist EC50
T1 construct: host or cells: CHO
How it was run: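 Antagonist mode: 15 min after compound addition, S1P (EC80) stimulates Fluo8-loaded, 1 h-starved CHO-S1PR2 cells, Ca2+ read over 3 min; a prior 3-min read checks compound agonism. EC50 from peak/baseline fluorescence ratio, normalised versus vehicle and S1P EC50 (antagonist) or EC100 (agonist).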

S1PR2 = biological target: T2, S1PR2 (Homo sapiens, UniProt O95136); assay: S1PR2 binding assay (competition with radioactively labeled S1P, SpA); conditions: membranes from stable cell line over expressing S1PR2, SpA beads; read-out: S1P2 EC50 (nM), S1PR2 binding EC50
T2 construct: expressed in transfected cells
How it was run: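 Scintillation proximity read-out after 2 h room-temperature incubation of compound, [3H]S1P and S1PR2-overexpressing cell membranes on WGA-coated beads. Buffer: 20 mM Tris pH 7.5, 100 mM NaCl, 10 mM MgCl2, 1 mM Na3VO4, 0.4% fatty-acid-free BSA; plates counted immediately after centrifugation.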

HFL-1 cells [2] = assay: IL-8 production assay (S1P induced IL-8); format: cell-based; conditions: Homo sapiens, HFL1; S1P (1 μM) induced IL-8 in HFL-1 cells, starvation medium without HSA; read-out: IL8 EC50
Experimental: This assay is designed to test inhibitory activity of compounds on S1P induced IL-8 on HFL-1 cells, ahuman fetal lung fibroblast cell line.
Human Fetal Lung cells (HFL-1) are seeded in 96 well plates in growth medium (F12K+10% heat inactivated FBS+l1% Pen/strep). After overnight incubation at 37° C., […] cells are refreshed with starvation medium without HSA (F12K+1% FBS+1% Pen/strep). On day three, compounds are added (10 point serial dilution, 30 μM highest concentration, 1/3 dilution, 0.3% DMSO final) and plates are incubated for one h at 37° C., 5% CO2. Subsequently S1P at 1 μM final concentration is added and plates are incubated for 16 to24 h at 37° C., […] after which the supermatant was collected. IL-8 levels in the supernatant are determined with the IL-8 ELISA of R&D systems.

HFL-1 cells [3] = assay: IL8 assay in the presence of Human Serum Albumin; conditions: HFL1, read-out: HSA IL8 EC50

T2 sequence (O95136 whole entry): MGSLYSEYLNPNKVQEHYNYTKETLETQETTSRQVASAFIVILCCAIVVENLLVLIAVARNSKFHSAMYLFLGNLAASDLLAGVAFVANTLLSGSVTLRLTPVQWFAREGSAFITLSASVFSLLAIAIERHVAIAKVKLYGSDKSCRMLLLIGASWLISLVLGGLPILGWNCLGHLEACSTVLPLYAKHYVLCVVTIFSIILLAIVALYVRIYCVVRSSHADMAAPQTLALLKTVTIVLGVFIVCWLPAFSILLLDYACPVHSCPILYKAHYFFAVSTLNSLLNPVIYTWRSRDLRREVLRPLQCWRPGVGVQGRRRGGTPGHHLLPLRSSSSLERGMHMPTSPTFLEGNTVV
T1 sequence (O95136 whole entry): as above

Row | Compound | EC50 [1] | EC50 (S1PR2) | EC50 (HFL-1 cells [2]) | EC50 (HFL-1 cells [3])
1 | CN(CC1CCCO1)C(=O)Cn1nc(Cc2nc3cc(OCC(F)F)c(C#N)cc3[nH]2)c2ccccc2c1=O (centres unmarked) [Compound 180, 2-[4-[[6-cyano-5-(2,2-difluoroethoxy)-1H-benzimidazol-2-yl)methyl]-1-oxo-phthalazin-2-yl]-N-methyl-N-(THF-2-ylmethyl)acetamide] | 21.1 nM | 93.9 nM | 28.3 nM | 67 nM
2 | N#CCCN(C(=O)Cn1nc(Cc2nc3cc(OCC(F)F)c(C#N)cc3[nH]2)c2ccccc2c1=O)C1CC1 [Compound 181, 2-[4-[[6-cyano-5-(2,2-difluoroethoxy)-1H-benzimidazol-2-yl]methyl]-1-oxo-phthalazin-2-yl]-N-(2-cyanoethyl)-N-cyclopropyl-acetamide] | 95.8 nM | 297 nM | 544 nM | 906 nM
3 | COC(C)(C)CNC(=O)Cn1nc(Cc2nc3cc(OCC(F)F)c(C#N)cc3[nH]2)c2ccccc2c1=O [Compound 182, 2-[4-[[6-cyano-5-(2,2-difluoroethoxy)-1H-benzimidazol-2-yl]methyl]-1-oxo-phthalazin-2-yl]-N-(2-methoxy-2-methyl-propyl)acetamide] | 17.3 nM | 53.4 nM | 9.66 nM | 54.7 nM
4 | COCCN(C)C(=O)Cn1nc(Cc2nc3cc(OCC(F)F)c(C#N)cc3[nH]2)c2ccccc2c1=O [Compound 183, 2-[4-[[6-cyano-5-(2,2-difluoroethoxy)-1H-benzimidazol-2-yl]methyl]-1-oxo-phthalazin-2-yl]-N-(2-methoxyethyl)-N-methyl-acetamide] | 76 nM | 307 nM | 196 nM | 430 nM
5 | N#Cc1cc2[nH]c(Cc3nn(CC(=O)NC4CCCOC4)c(=O)c4ccccc34)nc2cc1OCC(F)F (centres unmarked) [Compound 184, 2-[4-[[6-cyano-5-(2,2-difluoroethoxy)-1H-benzimidazol-2-yl)methyl]-1-oxo-phthalazin-2-yl]-N-tetrahydropyran-3-yl-acetamide] | 25.2 nM | 94.3 nM | 23.8 nM | 82.3 nM
6 | N#Cc1cc2nc(Cc3nn(CC(=O)N4CCC(F)(F)CC4)c(=O)c4c3CCCC4)[nH]c2cc1OCC(F)F [Compound 185, 6-(2,2-difluoroethoxy)-2-[[3-[2-(4,4-difluoro-1-piperidyl)-2-oxo-ethyl]-4-oxo-5,6,7,8-tetrahydrophthalazin-1-yl]methyl]-1H-benzimidazole-5-carbonitrile] | 30.4 nM | 166 nM | 93.7 nM | 302 nM
7 | COC1CCN(C(=O)Cn2nc(Cc3nc4cc(C#N)c(OCC(F)F)cc4[nH]3)c3ccccc3c2=O)C1 (centres unmarked) [Compound 186, 6-(2,2-difluoroethoxy)-2-[[3-[2-(3-methoxypyrrolidin-1-yl)-2-oxo-ethyl]-4-oxo-phthalazin-1-yl]methyl]-1H-benzimidazole-5-carbonitrile] | 25 nM | 141 nM | 34.8 nM | 80.9 nM
8 | COCCNC(=O)Cn1nc(Cc2nc3cc(C#N)c(OCC(F)F)cc3[nH]2)c2ccccc2c1=O [Compound 187, 2-[4-[[5-cyano-6-(2,2-difluoroethoxy)-1H-benzimidazol-2-yl]methyl]-1-oxo-phthalazin-2-yl]-N-(2-methoxyethyl)acetamide] | 50.2 nM | 165 nM | 74.5 nM | 80.4 nM
9 | N#Cc1cc2nc(Cc3nn(CC(=O)N4CCC(F)(F)CC4)c(=O)c4ccccc34)[nH]c2cc1OCC(F)F [Compound 188, 6-(2,2-difluoroethoxy)-2-[[3-[2-(4,4-difluoro-1-piperidyl)-2-oxo-ethyl]-4-oxo-phthalazin-1-yl]methyl]-1H-benzimidazole-5-carbonitrile] | 63.4 nM | 380 nM | 258 nM | 663 nM

Continued, values first:

Row | EC50 [1] | EC50 (S1PR2) | EC50 (HFL-1 cells [2]) | EC50 (HFL-1 cells [3]) | Compound
10 | 15 nM | 63.6 nM | 20.1 nM | 38 nM | CC(O)(CNC(=O)Cn1nc(Cc2nc3cc(C#N)c(OCC(F)F)cc3[nH]2)c2ccccc2c1=O)C(F)(F)F (centres unmarked) [Compound 190, 2-[4-[[5-cyano-6-(2,2-difluoroethoxy)-1H-benzimidazol-2-yl]methyl]-1-oxo-phthalazin-2-yl]-N-(3,3,3-trifluoro-2-hydroxy-2-methylpropyl)acetamide]
11 | 11.8 nM | 66.4 nM | 36.6 nM | 99.9 nM | N#Cc1cc2nc(Cc3nn(CC(=O)NC[C@H](O)C(F)(F)F)c(=O)c4ccccc34)[nH]c2cc1OCC(F)F [Compound 191, 2-[4-[[5-cyano-6-(2,2-difluoroethoxy)-1H-benzimidazol-2-yl]methyl]-1-oxo-phthalazin-2-yl]-N-[(2S)-3,3,3-trifluoro-2-hydroxypropyl]acetamide]
12 | 41 nM | 190 nM | 156 nM | 666 nM | COCC(O)CNC(=O)Cn1nc(Cc2nc3cc(C#N)c(OCC(F)F)cc3[nH]2)c2ccccc2c1=O (centres unmarked) [Compound 192, 2-[4-[[5-cyano-6-(2,2-difluoroethoxy)-1H-benzimidazol-2-yl]methyl]-1-oxo-phthalazin-2-yl]-N-(2-hydroxy-3-methoxypropyl)acetamide]
13 | 36.5 nM | 346 nM | 49.7 nM | 183 nM | N#Cc1cc2nc(Cc3nn(CC(=O)N4CCC(O)CC4)c(=O)c4ccccc34)[nH]c2cc1OCC(F)F [Compound 193, 6-(2,2-difluoroethoxy)-2-[[3-[2-(4-hydroxy-1-piperidyl)-2-oxo-ethyl]-4-oxo-phthalazin-1-yl]methyl]-1H-benzimidazole-5-carbonitrile]
14 | 41.9 nM | 268 nM | 186 nM | 453 nM | N#Cc1cc2nc(Cc3nn(CC(=O)N(CCO)CC(F)F)c(=O)c4ccccc34)[nH]c2cc1OCC(F)F [Compound 194, 2-[4-[[5-cyano-6-(2,2-difluoroethoxy)-1H-benzimidazol-2-yl]methyl]-1-oxo-phthalazin-2-yl]-N-(2,2-difluoroethyl)-N-(2-hydroxyethyl)acetamide]
15 | 31.9 nM | 197 nM | 27.8 nM | 171 nM | CC(C#N)CN(C)C(=O)Cn1nc(Cc2nc3cc(C#N)c(OCC(F)F)cc3[nH]2)c2ccccc2c1=O (centres unmarked) [Compound 195, 2-[4-[[5-cyano-6-(2,2-difluoroethoxy)-1H-benzimidazol-2-yl]methyl]-1-oxo-phthalazin-2-yl]-N-(2-cyanopropyl)-N-methyl-acetamide]
16 | 15.7 nM | 83.1 nM | 27.2 nM | 445 nM | CN(CC1CC1)C(=O)Cn1nc(Cc2nc3cc(C#N)c(OCC(F)F)cc3[nH]2)c2ccccc2c1=O [Compound 196, 2-[4-[[5-cyano-6-(2,2-difluoroethoxy)-1H-benzimidazol-2-yl]methyl]-1-oxo-phthalazin-2-yl]-N-(cyclopropylmethyl)-N-methyl-acetamide]
17 | 32.5 nM | 80.3 nM | 139 nM | 634 nM | CN(CC(F)F)C(=O)Cn1nc(Cc2nc3cc(C#N)c(OCC(F)F)cc3[nH]2)c2ccccc2c1=O [Compound 197, 2-[4-[[5-cyano-6-(2,2-difluoroethoxy)-1H-benzimidazol-2-yl]methyl]-1-oxo-phthalazin-2-yl]-N-(2,2-difluoroethyl)-N-methyl-acetamide]
18 | 54.6 nM | 173 nM | 80.3 nM | 276 nM | N#Cc1cc2nc(Cc3nn(CC(=O)NCC4(CO)COC4)c(=O)c4ccccc34)[nH]c2cc1OCC(F)F [Compound 199, 2-[4-[[5-cyano-6-(2,2-difluoroethoxy)-1H-benzimidazol-2-yl)methyl]-1-oxo-phthalazin-2-yl]-N-[[3-(hydroxymethyl)oxetan-3-yl]methyl]acetamide]
19 | 8.77 nM | 93.7 nM | 10.6 nM | 103 nM | N#Cc1cc2nc(Cc3nn(CC(=O)N4CCOCC4)c(=O)c4c3CCCC4)[nH]c2cc1OCC(F)(F)F [Compound 200, 2-[[3-(2-morpholino-2-oxo-ethyl)-4-oxo-5,6,7,8-tetrahydrophthalazin-1-yl]methyl]-6-(2,2,2-trifluoroethoxy)-1H-benzimidazole-5-carbonitrile]
20 | 6.86 nM | 48 nM | 13.4 nM | 479 nM | CC(C)(C)CNC(=O)Cn1nc(Cc2nc3cc(OCC(F)F)c(C#N)cc3[nH]2)c2ccccc2c1=O [Compound 202, 2-[4-[[6-cyano-5-(2,2-difluoroethoxy)-1H-benzimidazol-2-yl]methyl)-1-oxo-phthalazin-2-yl]-N-(2,2-dimethylpropyl)acetamide]
